From ChEMBL document CHEMBL1201862, “PubChem BioAssay data set” (2004)
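Assay format: 96-well plates, 48-hour exposure. The concentration for 50% growth inhibition is given as GI50.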 The source made the active and inactive calls. No stated cut-off is given here; in the data, active = GI50 up to about 1.1 µM and inactive = higher.

How the values were obtained:
Assay in all cases: NCI anticancer screen, dose series, 48 h
CCRF-CEM = tested on: CCRF-CEM
T47D = tested on: T47D
A498 = tested on: A498
COLO 205 = tested on: COLO 205
IGROV-1 = tested on: IGROV-1
K562 = tested on: K562
SK-MEL-28 = tested on: SK-MEL-28
RPMI-8226 = tested on: RPMI-8226
MCF7 = tested on: MCF7
LOX IMVI = tested on: LOX IMVI
SF-539 = tested on: SF-539
BT-549 = tested on: BT-549
MDA-MB-435 = tested on: MDA-MB-435
ACHN = tested on: ACHN
SN12C = tested on: SN12C
CAKI-1 = tested on: CAKI-1
SW-620 = tested on: SW-620
UACC-257 = tested on: UACC-257
SK-MEL-5 = tested on: SK-MEL-5
OVCAR-3 = tested on: OVCAR-3
MDA-N = tested on: MDA-N
KM12 = tested on: KM12
TK-10 = tested on: TK-10
HL-60 = tested on: HL-60
OVCAR-8 = tested on: OVCAR-8
HOP-62 = tested on: HOP-62
HT-29 = tested on: HT-29
HCT-15 = tested on: HCT-15
OVCAR-4 = tested on: OVCAR-4
NCI-H460 = tested on: NCI-H460
SF-268 = tested on: SF-268
A549 = tested on: A549
HCC 2998 = tested on: HCC 2998
OVCAR-5 = tested on: OVCAR-5
PC-3 = tested on: PC-3
Hs-578T = tested on: Hs-578T
SK-OV-3 = tested on: SK-OV-3
786-0 = tested on: 786-0
SNB-75 = tested on: SNB-75
SNB-19 = tested on: SNB-19
DU-145 = tested on: DU-145
Malme-3M = tested on: Malme-3M
NCI-H522 = tested on: NCI-H522
NCI-H226 = tested on: NCI-H226
EKVX = tested on: EKVX
MDA-MB-231 = tested on: MDA-MB-231
UO-31 = tested on: UO-31
UACC-62 = tested on: UACC-62
SR = tested on: SR
U-251 = tested on: U-251
M14 = tested on: M14
SK-MEL-2 = tested on: SK-MEL-2
MOLT-4 = tested on: MOLT-4
RXF 393 = tested on: RXF 393
HOP-92 = tested on: HOP-92
HCT-116 = tested on: HCT-116
NCI/ADR-RES = tested on: NCI/ADR-RES
SF-295 = tested on: SF-295
NCI-H23 = tested on: NCI-H23

OC(O)(C(F)(F)F)C(F)(F)F
GI50 (CCRF-CEM): > 100 µM (inactive) | GI50 (T47D): > 100 µM (inactive) | GI50 (A498): > 100 µM (inactive) | GI50 (COLO 205): > 100 µM (inactive) | GI50 (IGROV-1): > 100 µM (inactive) | GI50 (K562): > 100 µM (inactive) | GI50 (SK-MEL-28): > 100 µM (inactive) | GI50 (RPMI-8226): > 100 µM (inactive) | GI50 (MCF7): > 100 µM (inactive) | GI50 (LOX IMVI): > 100 µM (inactive) | GI50 (SF-539): > 100 µM (inactive) | GI50 (BT-549): > 100 µM (inactive) | GI50 (MDA-MB-435): > 100 µM (inactive) | GI50 (ACHN): > 100 µM (inactive) | GI50 (SN12C): > 100 µM (inactive) | GI50 (CAKI-1): > 100 µM (inactive) | GI50 (SW-620): > 100 µM (inactive) | GI50 (UACC-257): > 100 µM (inactive) | GI50 (SK-MEL-5): > 100 µM (inactive) | GI50 (OVCAR-3): > 100 µM (inactive) | GI50 (MDA-N): > 100 µM (inactive) | GI50 (KM12): > 100 µM (inactive) | GI50 (TK-10): > 100 µM (inactive) | GI50 (HL-60): > 100 µM (inactive) | GI50 (OVCAR-8): > 100 µM (inactive) | GI50 (HOP-62): > 100 µM (inactive) | GI50 (HT-29): > 100 µM (inactive) | GI50 (HCT-15): > 100 µM | GI50 (OVCAR-4): > 100 µM (inactive) | GI50 (NCI-H460): > 100 µM (inactive) | GI50 (SF-268): > 100 µM (inactive) | GI50 (A549): > 100 µM (inactive) | GI50 (HCC 2998): > 100 µM (inactive) | GI50 (OVCAR-5): > 100 µM (inactive) | GI50 (PC-3): > 100 µM (inactive) | GI50 (Hs-578T): > 100 µM (inactive) | GI50 (SK-OV-3): > 100 µM (inactive) | GI50 (786-0): > 100 µM (inactive) | GI50 (SNB-75): > 100 µM (inactive) | GI50 (SNB-19): > 100 µM (inactive) | GI50 (DU-145): > 100 µM (inactive) | GI50 (Malme-3M): > 100 µM (inactive) | GI50 (NCI-H522): > 100 µM (inactive) | GI50 (NCI-H226): > 100 µM (inactive) | GI50 (EKVX): > 100 µM (inactive) | GI50 (MDA-MB-231): > 100 µM (inactive) | GI50 (UO-31): > 100 µM (inactive) | GI50 (UACC-62): > 100 µM (inactive) | GI50 (SR): > 100 µM (inactive) | GI50 (U-251): > 100 µM (inactive) | GI50 (M14): > 100 µM (inactive) | GI50 (SK-MEL-2): > 100 µM (inactive) | GI50 (MOLT-4): > 100 µM (inactive) | GI50 (RXF 393): > 100 µM (inactive) | GI50 (HOP-92): > 100 µM (inactive) | GI50 (HCT-116): > 100 µM (inactive) | GI50 (NCI/ADR-RES): > 100 µM (inactive) | GI50 (SF-295): > 100 µM (inactive) | GI50 (NCI-H23): > 100 µM (inactive)

Cc1cc2oc(C)c(S(=O)(=O)NC(=O)Nc3ccc(Cl)cc3)c(=O)c2c(=O)o1
GI50 (CCRF-CEM): > 100 µM (inactive) | GI50 (T47D): > 100 µM (inactive) | GI50 (A498): > 100 µM (inactive) | GI50 (COLO 205): > 100 µM (inactive) | GI50 (IGROV-1): > 100 µM (inactive) | GI50 (K562): > 100 µM (inactive) | GI50 (SK-MEL-28): > 100 µM (inactive) | GI50 (RPMI-8226): > 100 µM (inactive) | GI50 (MCF7): > 100 µM (inactive) | GI50 (LOX IMVI): > 100 µM (inactive) | GI50 (SF-539): > 100 µM (inactive) | GI50 (BT-549): > 100 µM (inactive) | GI50 (MDA-MB-435): > 100 µM (inactive) | GI50 (ACHN): 59.4 µM (inactive) | GI50 (SN12C): > 100 µM (inactive) | GI50 (CAKI-1): > 100 µM (inactive) | GI50 (SW-620): > 100 µM (inactive) | GI50 (UACC-257): > 100 µM (inactive) | GI50 (SK-MEL-5): > 100 µM (inactive) | GI50 (OVCAR-3): > 100 µM (inactive) | GI50 (MDA-N): > 100 µM (inactive) | GI50 (KM12): > 100 µM (inactive) | GI50 (TK-10): > 100 µM (inactive) | GI50 (HL-60): > 100 µM (inactive) | GI50 (OVCAR-8): > 100 µM (inactive) | GI50 (HOP-62): > 100 µM (inactive) | GI50 (HT-29): > 100 µM (inactive) | GI50 (HCT-15): 23 µM | GI50 (OVCAR-4): > 100 µM (inactive) | GI50 (NCI-H460): > 100 µM (inactive) | GI50 (SF-268): > 100 µM (inactive) | GI50 (A549): > 100 µM (inactive) | GI50 (HCC 2998): > 100 µM (inactive) | GI50 (OVCAR-5): > 100 µM (inactive) | GI50 (PC-3): 83.6 µM (inactive) | GI50 (Hs-578T): > 100 µM (inactive) | GI50 (SK-OV-3): > 100 µM (inactive) | GI50 (786-0): > 100 µM (inactive) | GI50 (SNB-75): > 100 µM (inactive) | GI50 (SNB-19): > 100 µM (inactive) | GI50 (DU-145): > 100 µM (inactive) | GI50 (Malme-3M): > 100 µM (inactive) | GI50 (NCI-H522): > 100 µM (inactive) | GI50 (NCI-H226): > 100 µM (inactive) | GI50 (EKVX): > 100 µM (inactive) | GI50 (MDA-MB-231): > 100 µM (inactive) | GI50 (UO-31): > 100 µM (inactive) | GI50 (UACC-62): 30.9 µM (inactive) | GI50 (SR): > 100 µM (inactive) | GI50 (U-251): > 100 µM (inactive) | GI50 (M14): > 100 µM (inactive) | GI50 (SK-MEL-2): > 100 µM (inactive) | GI50 (MOLT-4): > 100 µM (inactive) | GI50 (RXF 393): > 100 µM (inactive) | GI50 (HOP-92): > 100 µM (inactive) | GI50 (HCT-116): > 100 µM (inactive) | GI50 (NCI/ADR-RES): > 100 µM (inactive) | GI50 (SF-295): > 100 µM (inactive) | GI50 (NCI-H23): > 100 µM (inactive)
